Experimental data from patent US9226914B2, “Methods for promoting neuronal development and/or health” (Mead Johnson Nutrition Company, priority 2013, dated 2016).

Columns and labels:
[1] = tested on: frontal cortex neuronal networks (cortical network activity in vitro); experiment: Acute effects on cortical neuronal network activity on MEA neurochips (spike train analysis); format: cell-based, mice
Method: The experiments were performed according to the SOPs, “SOP Preparation Frontal Cortex Mouse—Serum (Rev. 07 2012 Mar. 6 eng)”, “SOP Solutions for Neuronal Cell Culture (Rev. 04 2009 Nov. 18 eng)”, “SOP Cleaning and Substrate Preparations of MEAs (Rev. 03 2009 Apr. 26 eng)”, “SOP Feeding neuronal cell culture”, “SOP Cell culture preparation MEAs”, “SOP Plexon Recording” and “SOP Plexon Data Analysis”.
The microelectrode array neurochips (“MEA neurochips”) were provided by the Center for Network Neuroscience (CNNS) at the University of North Texas. These 5×5 cm^2 glass chips have a dual recording matrix with 32 passive electrodes per matrix and indium tin oxide conductors. The hydrophobic insulation material surface was activated by a brief butane flame pulse through a stainless steel mask. Thus, cell attachment on a confined region, a 5 mm diameter centered on the electrode array, is ensured. The activated face regions were coated with 25 μg/mL poly-D-lysine (30-70 kD) and incubated […] in 16 μg/mL laminin for 3 hours right before the preparation.
Frontal cortex tissue was harvested from embryonic day 15 chr:NMRI mice. Mice were sacrificed by cervical dislocation according to the German Animal Protection Act Section 4. Cultures on MEAs were incubated at 37 deg. C. in a 10% CO2 atmosphere until ready for use, which usually is four weeks to three months after seeding. Culture media were replenished two times a week with DMEM containing 10% heat inactivated horse serum. The developing co-cultures were treated with the mitosis inhibitor 5-fluoro-2′-deoxyuridine (25 μMolar) and uridine (63 μMolar) for 48 hours on day 5 after seeding to prevent further glial proliferation.
After establishing a stable activity pattern after 4 weeks, the neuronal networks on MEA chips were employed for substance testing. For this example, cultures between 25 and 38 days in vitro were used. For extracellular recording, MEA neurochips were placed into sterilized constant-bath recording chambers and maintained at 37 deg. C. Recordings were made in DMEM including 10% heat inactivated horse serum. The pH was maintained at 7.4 with a continuous stream of filtered, humidified airflow with 10% CO2. Sets of preamplifiers were positioned to either side of the recording chamber. Recording was performed with the multichannel acquisition processor system, a computer-controlled 64-channel amplifier system (Plexon, Inc., Dallas, Tex., USA) providing programmable amplification, filtering, switching, and digital signal processing of microelectrode signals. The total system gain used was 10K with a simultaneous 40 kHz sampling rate. The signals routinely recorded by these neurochips are located in a range of 15-1800 microV.
The multichannel signal acquisition system delivered single neuron spike data. Spike identification and separation were accomplished with a template-matching algorithm in real time. This allows for the extracellular recording from action potentials from a maximum of 256 neurons simultaneously.
The action potentials, or spikes, were recorded in spike trains and are clustered in so-called bursts. Bursts were quantitatively described via direct spike train analysis using the program NeuroEXplorer (Plexon Inc., Dallas, Tex., USA) and in house programs. Bursts were defined by the beginning and the end of short spike invents. Maximum spike intervals defining the start of a burst were 40 ms and maximum intervals to end a burst from 200 ms.
All compounds were recorded with a fixed DMSO concentration of 0.1% throughout the experiments. Due to the fact that alpha-lipoic acid was investigated at concentrations between 100 μM and 5 mM, the solvent concentration reached 0.7%.
The high content analysis of the network activity patterns provides a multiparametric description characterized in four activity categories: general activity, burst structure, synchronicity and oscillatory behavior. […]

[2] = Precipitation on dilution of stock into experiment bath solution; format: physicochemical; conditions: 1 M stock in 100% DMSO; bath 1, 3 and 5 mM
Method: All compounds were recorded with a fixed DMSO concentration of 0.1% throughout the experiments. Due to the fact that alpha-lipoic acid was investigated at concentrations between 100 μM and 5 mM, the solvent concentration reached 0.7%. […] Working solutions of all compounds were freshly prepared for each experiment day and between 0.9 and 10 μL were applied to a 1 mL experiment bath solution.

[3] = tested on: neuronal activity (spike rate and burst rate); experiment: Chronic effects of hBDNF on neuronal activity development in the MEA system; format: cell-based; conditions: 20 ng/ml, FIG. 15
From the text: For neurotrophic factors such as hBDNF, NeuroProof tested the chronic effects in the MEA system (See FIG. 15).

Compound: O=C(O)CCCCC1CCSS1 (stereo not drawn) [ALA, alpha-lipoic acid]
- activity reached (spike rate fit) ([1]; 100 μM alpha-lipoic acid, FIG. 6): 91.5 % of control (0.1% DMSO) activity
- activity reached (spike rate fit) ([1]; 1 mM alpha-lipoic acid, FIG. 6): 83.6 % of control (0.1% DMSO) activity
- activity reached (spike rate fit) ([1]; 5 mM alpha-lipoic acid, FIG. 6): 43.9 % of control (0.1% DMSO) activity
- concentration at which general activity is affected (spike rate fit) ([1]; FIG. 6): above 100 μM
- EC50 ([1]; Mus musculus, concentration of ALA, FIGS. 9 and 10, read-out: EC50 for the decline of activity): 5.03 mM
- Hill coefficient (nH) of the decline of activity ([1]; concentrations above 100 μM ALA, higher value = steeper slope): 1.66
- concentration at which general activity is reduced ([1]; experimental concentrations): ≥ 1 mM
- precipitation during dilution [2]: precipitation of alpha-lipoic acid occurred at the three highest concentrations

Compound: hBDNF: Human recombinant brain derived neurotrophic factor, PeproTech #450-02
- effect on general activity ([1]; above 500 pg/mL, tested 10 pg/mL to 50 μg/mL): only shows slight effects on the general activity which is numerically increased
- EC50 on spike rate ([1]; acute application): 5.28 ng/mL
- acceleration of neuronal activity development ([3]; chronic): approximately one week
- general activity (spike rate, burst rate), chronic treatment ([3]; versus vehicle): increases the general activity at every recorded time point

Compound: CC/C=C\C/C=C\C/C=C\C/C=C\C/C=C\C/C=C\CCC(=O)O [DHA, docosahexaenoic acid]
- activity (spike rate fit), activity decline reached ([1]; 100 μM DHA, highest tested concentration, FIG. 5): 63.6 % of native activity
- concentration at which spike rates and burst rates are reduced ([1]; increasing effects at higher concentrations): ≥ 100 pM
